Measurements taken from PubChem BioAssay (NCI).
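A five-concentration, 48-hour dose response in 96-well plates underlies each endpoint, interpolated linearly between surrounding concentrations. Here, GI50 denotes the concentration required for 50% inhibition of growth. TGI: concentration producing complete growth inhibition.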 *1 amine or outer side, *2 acyl side, *3 side chain or, on linkers, in order; H or OH if unused. Where a SMILES comes first, the peptide text is derived from it. Bridges are numbered along the chain shown (N, C = ends). [ ]: non-standard residue; d: D form. The star is where a group is joined. Phe(3-Me) = Cc1cccc(C[C@H](N)C(=O)O)c1; NH(4-Cl-2-F-phenyl) = Fc1cc(Cl)ccc1N*; Pro(4R-Me) = C[C@H]1CN[C@H](C(=O)O)C1; Hyp = O=C(O)[C@@H]1C[C@@H](O)CN1; aThr = C[C@H](O)[C@H](N)C(=O)O; Pip = O=C(O)[C@@H]1CCCCN1; CO = O=C([*:1])[*:2]

Test system: MDA-MB-468 breast
Test: DTP human tumour cell line panel, 48 h

Row | Structure (SMILES) | GI50 [µM] | TGI [µM]
1 | O=C(NNc1nc2cc(F)c(F)cc2n2c(CN3CC4CNCC4C3)ccc12)c1ncccn1 (stereo unspecified) | 2.04 | 9.82
2 | Cc1nc(Nc2ccc(F)c(Cl)c2)sc1C(=O)O | 1.2 | 3.79
3 | COc1ccc(C2=C(c3cn(C)c4ccccc34)C(=O)NC2=O)cc1OC | 5.86 | > 25
4 | O=C(Nc1ccncc1)C(=O)c1cn(S(=O)(=O)c2ccccc2F)c2ccccc12 | 1.51 | 9.81
5 | CCOc1cc2ncc(C#N)c(Nc3ccc(F)c(Cl)c3)c2cc1NC(=O)/C=C/CN(C)C | 0.00238 | 0.0351
6 | CCS(=O)(=O)c1ccc(OC)c(Nc2nccc(N(C)c3ccc4c(C)[nH]nc4c3)n2)c1 | 3.48 | 9.32
7 | c1cncc(CNc2ccccc2-c2nnc(Nc3ccc4c(c3)OCCO4)o2)c1 | 0.218 | 0.821
8 | CCc1ccc(CCC(=O)Nc2ncc(Cc3ccccc3)s2)o1 | 1.55 | > 100
9 | Cc1ccc(C(=O)N/N=C/c2cccc(Oc3ccccc3)c2)cn1 | 4.43 | > 34.9
10 | Cc1ccc(NS(=O)(=O)c2cc(C)ccc2C)cc1 | 1.42 | 7.28
11 | Cc1cccc(C[C@H](NC(=O)Nc2ccc(Cl)cc2F)C(=O)N[C@@H]2C(=O)N3C[C@H](O)C[C@H]3C(=O)N3CCCC[C@H]3C(=O)N[C@@H](C)C(=O)N3C[C@H](C)C[C@H]3C(=O)O[C@H]2C)c1 ({NH(4-Cl-2-F-phenyl)-CO}-[Phe(3-Me)][aThr][Hyp][Pip]A[Pro(4R-Me)]; ester 2-C) | 0.253 | 1.03
12 | O=C(c1cc(-c2cc3c(cc2C(=O)N2Cc4ccccc4C[C@H]2CN2CCOCC2)OCO3)n2c1CCCC2)N(c1ccccc1)c1ccc(O)cc1 | 3.07 | 96.2
13 | COc1ccc(C2c3cc4c(cc3OC(N3CCOCC3)C2C)OCO4)c(OC)c1 (stereo unspecified) | 7.18 | 32
14 | Cc1nc(NC(=S)Nc2ccc(F)cc2)sc1C(=O)NNC(=S)Nc1ccc(F)cc1 | 2.22 | 9.53
15 | O=C(Nc1ccc(Nc2ccncc2)cc1)c1ccc(Nc2ccnc3ccc([N+](=O)[O-])cc23)cc1 | > 100 | > 100
16 | COc1ccc(Cn2cc3c(c2-c2cc(OC)c(OC)c(OC)c2)CCc2c(CN4CCCC4)noc2-3)cc1 | 0.28 | 0.966
17 | Nc1ncc(-c2ccc(C(F)(F)F)cc2)c(NC2CCCCCC2)n1 | 4.15 | > 100
18 | CCC(C)/C=C(C)/C=C/C(=O)c1c(O)c(-c2ccc(O)cc2)c[nH]c1=O (stereo unspecified) | 1.87 | 7.76
19 | CN1CCN(Cc2ccc(NC(=O)c3[nH]ncc3Nc3ncnc4c3CCC4)cc2)CC1 | 2 | 5.84
20 | N#CSCC1CC(O)(c2ccccc2)C(c2ccccc2)C(c2ccc(F)cc2)O1 (stereo unspecified) | 3.51 | 13.1
21 | O=c1[nH]nc2c3c(cccc13)NC(CN1Cc3ccccc3C1)=N2 | 7.92 | > 100
22 | C[C@@H]1CCN(C(=O)CC#N)C[C@@H]1N(C)c1ncnc2[nH]ccc12 | > 100 | > 100
23 | COc1cccc(/C=C/C(=O)c2cc3c(N)c(C(=O)Nc4cccc(Cl)c4C)sc3nc2C)c1 | 0.778 | 1.82
